# Data as given in the OligoGym collection.
# After the bases stand the sugars from the 5' end (letter, count) and the backbone: PS all phosphorothioate, else s phosphorothioate and o phosphodiester by linkage. Methylation of C is not given here. e = 2'-O-(2-methoxyethyl) (MOE); k = constrained ethyl (cEt); d = 2'-deoxy (DNA); m = 2'-O-methyl
# Biological target: HSD17B13
# Details: ASO, HepaRG
Sequence,target mRNA inhibition (1 µM) [%],other results
"ACCTCAAATGTCTTGG (sugars k3 d10 k3, PS)",17,
"GGAGTGCATCTTAAGA (sugars kkdddddddddkekek, PS)",34,
"CATAACTTCATAGTGG (sugars k3 d1 m1 d8 k3, PS)",38,
"ACCGUTTTGGGCTAAT (sugars k3 d1 m1 d8 k3, PS)",65,
"AAAAATTGGCCTCCTG (sugars k3 d10 k3, PS)",41,
"TCATTCGAATTTCTTC (sugars k3 d10 k3, PS)",76,target mRNA inhibition (0.02 µM): 16%; target mRNA inhibition (0.078 µM): 31%; target mRNA inhibition (0.313 µM): 54%; target mRNA inhibition (1.25 µM): 79%; target mRNA inhibition (5 µM): 90%
"TTGCAGTTATTAGAAG (sugars k3 d10 k3, PS)",13,
"GATGAGTAGGCAACTG (sugars k3 d10 k3, PS)",42,
"GTGTAGTTTGGTGGGC (sugars k3 d10 k3, PS)",33,
"ATCCAGTAGGTGTGTT (sugars k3 d10 k3, PS)",41,
"ACAGAGAATTGTTTAG (sugars k3 d10 k3, PS)",39,
"ATTTAGGGCAAACCTT (sugars k3 d10 k3, PS)",35,
"TAGTACCAAGACACTA (sugars k3 d10 k3, PS)",27,
"CTTGATGTAGTGGGAG (sugars kkdddddddddkekek, PS)",20,
"AGTGCATCTTAAGATA (sugars k3 d1 m1 d8 k3, PS)",17,
"ATACATTAGCAAGCTA (sugars k3 d1 m1 d8 k3, PS)",36,
"TCCTAGGGAGGAGGTA (sugars k3 d10 k3, PS)",33,
"CTTGAATAGCAAGCCA (sugars k3 d10 k3, PS)",25,
"AGGCTAGGGAAATCTT (sugars k3 d9 k3 e1, PS)",55,
"TTATAACTACAAGAGG (sugars k3 d9 k3 e1, PS)",43,
"GCTTTAATTTTTGAGC (sugars k3 d10 k3, PS)",26,
"ATTCCATCTATCAGAC (sugars k3 d10 k3, PS)",7,
"TGATUGAGTTCTCCAC (sugars k3 d1 m1 d8 k3, PS)",4,
"GCCTGCTGAAACTTGA (sugars k3 d10 k3, PS)",18,

Sequence,target mRNA inhibition (1 µM) [%],other results
"TGCCAAACCAATGTTT (sugars k3 d9 k3 e1, PS)",43,
"GTTTTGCAAGTTTATC (sugars k3 d10 k3, PS)",73,
"CTAACCTGACACATAT (sugars k3 d10 k3, PS)",18,
"TTAGCTTAAACTCCAA (sugars k3 d10 k3, PS)",78,target mRNA inhibition (0.02 µM): 0%; target mRNA inhibition (0.078 µM): 18%; target mRNA inhibition (0.313 µM): 38%; target mRNA inhibition (1.25 µM): 75%; target mRNA inhibition (5 µM): 82%
"CGTCAAATAGGGCTGG (sugars k3 d10 k3, PS)",53,
"GTATGTTTATGTAAGC (sugars k3 d10 k3, PS)",80,target mRNA inhibition (0.02 µM): 0%; target mRNA inhibition (0.078 µM): 16%; target mRNA inhibition (0.313 µM): 33%; target mRNA inhibition (1.25 µM): 77%; target mRNA inhibition (5 µM): 87%
"TCTCTTGACAATGGTT (sugars kkdddddddddkekek, PS)",70,target mRNA inhibition (0.02 µM): 15%; target mRNA inhibition (0.078 µM): 25%; target mRNA inhibition (0.313 µM): 43%; target mRNA inhibition (1.25 µM): 71%; target mRNA inhibition (5 µM): 70%
"ATATACTGTCCCAGCA (sugars k3 d10 k3, PS)",43,
"TAGGATTAATCATGGG (sugars k3 d10 k3, PS)",47,
"GCTGGATATACTGTCC (sugars k3 d10 k3, PS)",36,
"TTCTUATGTAATAGCC (sugars k3 d1 m1 d8 k3, PS)",66,
"ATCATCGATGGAAGAA (sugars k3 d10 k3, PS)",30,
"CCTCGATCCTATATAC (sugars k3 d9 k3 e1, PS)",11,
"TATGTGATTGAGTTCT (sugars k3 d10 k3, PS)",28,
"ATACTGAAATTGATAC (sugars k3 d10 k3, PS)",11,
"CATATGTGAAGAGCTG (sugars kkdddddddddkekek, PS)",35,
"TATGGTAAGCCCCATG (sugars k3 d10 k3, PS)",30,
"AACACTAATCTCAGTA (sugars k3 d10 k3, PS)",15,
"CCTTTAGTTAGAATAG (sugars k3 d10 k3, PS)",37,
"GAAGAGGCTAGGGAAA (sugars k3 d10 k3, PS)",44,
"CACAAGTAAGGTAAAG (sugars k3 d10 k3, PS)",54,
"ATAGAGTTGCACCGTT (sugars kkdddddddddkekek, PS)",45,
"GTCTTGATGTAGTGGG (sugars k3 d9 k3 e1, PS)",70,
"TTGAGTTCTCCACTGC (sugars kkdddddddddkekek, PS)",20,
